Results published in US7173047B2, “Benzo (f) insoindol derivatives and their use as ep4 receptor ligands” (Glaxo Group Limited, priority 2000, dated 2007).

Tests used:
human EP4 receptor [1] = biological target: T1, human EP4 receptor (Homo sapiens, UniProt P35408); assay: [125I]cAMP Scintillation Proximity Assay (EP4 antagonist assay, HEK-293 cells expressing recombinant human EP4 receptor); format: cell-based; parameters: expressed in transfected cells; conditions: method of Arunlakshana and Schild, read-out: pKb (antagonist affinity) (converted)
Protocol: The CAMP assay utilises HEK-293 cells expressing the recombinant human EP4 receptor, obtained from Receptor Biology, Inc. Beltsville, Md., USA. The cells were cultured in Dulbecco's Modified Eagle Medium—HAM F12 mix (DMEM-F12), containing 10% heat inactivated-foetal bovine serum (FBS) and 2 mM L-glutamine. The cells were either passaged into fresh medium or used in an assay once 90% confluency as determined visually had been achieved.
The cells were harvested by treatment with Versene, re-suspended in fresh culture medium and plated out to yield approximately 10,000 cells per well of a 96-well plate for overnight culture in culture medium additionally supplemented with 3 μM indomethacin. For assay, the culture medium was replaced with assay medium (DMEM-F12 containing 300 μM isobutylmethylxanthine (IBMX) and 3 μM indomethacin) and incubated for 30 minutes. Following this, antagonist was then added at various concentrations such that an entire agonist concentration-effect curve could be obtained in the presence of a single concentration of the antagonist. […] The amount of cAMP in each well was then determined by [^125I]cAMP scintillation proximity assay using a proprietary kit, obtained from Amersham, Buckinghamshire, UK, and according to the manufacturers instructions.
Data from cAMP assays were expressed as pmol CAMP per well. […]

human EP4 receptor [2] = biological target: T1, human EP4 receptor; assay: Human EP4 Scintillation Proximity Assay ([3H]-prostaglandin E2 radioligand binding); parameters: expressed in transfected cells; host or cells: CHO cells infected with Semliki Forest Virus (SFV-1) particles; membranes; conditions: membranes of CHO cells expressing human EP4 receptor; 1.25 nM [3H]-prostaglandin E2; pKi from IC50 by Cheng-Prusoff; read-out: pKi at EP4 receptors (converted)
Excerpt: Quantification of radioligand binding by scintillation proximity assay (SPA) is a long-established principle. Briefly, the affinity of compounds for a receptor is assesssed by the specific competition between known quantities of radiolabelled ligand and compound for that receptor. Increasing concentrations of compound reduce the amount of radiolabel that binds to the receptor. This gives rise to a diminshing scintillation signal from SPA beads coated with membranes that bear the receptor. The signal may be detected with a suitable scintillation counter and the data generated may be analysed with suitable curve-fitting software.
The human EP4 SPA assay (hereafter referred to as ‘the assay’) utilises membranes prepared from Chinese Hamster Ovary (CHO cells) infected with Semilki Forest Virus (SFV). Genetically engineered SFV-1 viral particles containing the genetic sequence of the human EP4 receptor were used to infect CHO cells resulting in expression of the receptor protein in cellular membranes. Cells washed free of media are homogenised in a pH-buffered medium containing peptidase inhibitors. A suitable buffer is of the following composition: 50 mM HEPES, 1 mM EDTA, 25 μg/ml bacitracin, 100 μM leupeptin, 1 mM PMSF, 2 μM Pepstatin A, pH adjusted to 7.4 with KOH. Following removal of cell debris by a low-speed centrifugation, a pellet of membranes is prepared by a high-speed (48000 g) centrifugation of the resulting supernatant. Membrane suspensions such as that described may be stored at −80° C. until used.
For assay, membranes expressing human EP4 receptors are diluted in a pH-buffered medium and mixed with SPA beads coated with a suitable substance to facilitate the adhesion of membranes to the beads. The concentrations of membrane protein and SPA beads chosen should result in SPA binding signal of at least 300 corrected counts per minute (CCPM) when tritiated radioligand at a concentration close to its Kd (affinity value) is combined with the mixture. Non-specific binding (nsb) may be determined by competition between the radiolabelled ligand and a saturating concentration of unlabelled ligand. In order to quantify the affinity of EP4 receptor ligands, compounds are diluted in a stepwise manner across the wells of a 96-well plate. Radioligand, compound, and unlabelled ligand are then added to a 96-well plate suitable for the measurement of SPA binding signals prior to the addition of bead/membrane mixture to initiate the binding reaction. Equilibrium may be achieved by incubation at room temperature for 120 minutes prior to scintillation counting. The data so generated may be analysed by means of a computerised curve-fitting routine in order to quantify the concentration of compound that displaces 50% of the specific radioligand binding (IC50). The affinity (pKi) of the compound may be calculated from the IC50 by application of the Cheng-Prusoff correction. Suitable reagents and protocols are: reaction buffer containing 50 mM HEPES, 10 mM MgCl2, pH adjusted to 7.4 with KOH; SPA beads coated with wheatgerm agglutinin; 1.25 nM [^3H]-prostaglandin E2 as radioligand; 10 μM prostaglandin E2 as unlabelled ligand; a three-fold dilution series of compound starting at 10 μM and ending at 0.3 nM is adequate.

T1 sequence (P35408 whole entry): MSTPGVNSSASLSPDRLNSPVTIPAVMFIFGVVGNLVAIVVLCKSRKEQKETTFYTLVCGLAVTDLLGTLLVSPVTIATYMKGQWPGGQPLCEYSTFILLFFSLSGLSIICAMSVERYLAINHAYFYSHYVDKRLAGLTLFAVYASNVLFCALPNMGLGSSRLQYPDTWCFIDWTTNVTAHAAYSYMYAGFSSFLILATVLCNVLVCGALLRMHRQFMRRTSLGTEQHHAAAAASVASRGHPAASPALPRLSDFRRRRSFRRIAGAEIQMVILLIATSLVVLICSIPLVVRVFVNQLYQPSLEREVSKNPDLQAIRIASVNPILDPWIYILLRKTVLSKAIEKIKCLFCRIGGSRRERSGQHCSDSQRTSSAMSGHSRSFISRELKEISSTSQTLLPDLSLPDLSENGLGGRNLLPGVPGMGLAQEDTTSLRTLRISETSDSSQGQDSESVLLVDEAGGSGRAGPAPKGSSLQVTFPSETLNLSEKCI

Structure (SMILES) | Kb (human EP4 receptor [1]) [nM] | Ki (human EP4 receptor [2]) [nM]
CCOc1c2c(c(OCC)c3ccccc13)C(=O)N(c1ccc(CC(=O)NS(=O)(=O)c3ccc(F)cc3)cc1)C2 [Example 1, N-{[4-(4,9-diethoxy-1-oxo-1,3-dihydro-2H-benzo[f]isoindol-2-yl)phenyl]acetyl}-4-fluorobenzenesulfonamide] | ≤ 100 | ≤ 100
CCOc1c2c(c(OCC)c3ccccc13)C(=O)N(c1ccc(CC(=O)NS(=O)(=O)c3ccccc3)cc1)C2 [Example 3, N-{2-[4-(4,9-diethoxy-1-oxo-1,3-dihydro-2H-benzo[f]isoindol-2-yl)phenyl]acetyl}benzenesulfonamide] | ≤ 100 | ≤ 100
CCOc1c2c(c(OCC)c3ccccc13)C(=O)N(c1ccc(CC(=O)NS(=O)(=O)c3ccccc3C)cc1)C2 [Example 4] |  | ≤ 100
CCOc1c2c(c(OCC)c3ccccc13)C(=O)N(c1ccc(CC(=O)NS(=O)(=O)c3ccc(C)cc3OC)cc1)C2 [Example 9] |  | ≤ 100
CCOc1c2c(c(OCC)c3ccccc13)C(=O)N(c1ccc(CC(=O)NS(=O)(=O)c3cccc(Br)c3)cc1)C2 [Example 10] |  | ≤ 100
CCOc1c2c(c(OCC)c3ccccc13)C(=O)N(c1ccc(CC(=O)NS(=O)(=O)c3cc(Br)ccc3OC)cc1)C2 [Example 12] |  | ≤ 100
CCOc1c2c(c(OCC)c3ccccc13)C(=O)N(c1ccc(CC(=O)NS(=O)(=O)c3cccc(OC)c3)cc1)C2 [Example 13] |  | ≤ 100
CCOc1c2c(c(OCC)c3ccccc13)C(=O)N(c1ccc(CC(=O)NS(=O)(=O)c3ccccc3C)cc1)C2=O [Example 14] |  | ≤ 100
CCOc1c2c(c(OCC)c3ccccc13)C(=O)N(c1ccc(CC(=O)NS(=O)(=O)c3ccccc3)cc1)C2=O [Example 15] |  | ≤ 100
CCOc1c2c(c(OCC)c3ccccc13)C(=O)N(c1ccc(CC(=O)NS(=O)(=O)c3cccc(Cl)c3)cc1)C2=O [Example 16] |  | ≤ 100
CCOc1c2c(c(OCC)c3ccccc13)C(=O)N(c1ccc(CC(=O)NS(=O)(=O)c3cccnc3)cc1)C2 [Example 30] |  | ≤ 100
CCOC(=O)CS(=O)(=O)NC(=O)Cc1ccc(N2Cc3c(c(OCC)c4ccccc4c3OCC)C2=O)cc1 [Example 34] |  | ≤ 100
CCOc1c2c(c(OCC)c3ccccc13)C(=O)N(c1ccc(CC(=O)NS(=O)(=O)c3cccs3)cc1)C2 [Example 35] |  | ≤ 100
CCOc1c2c(c(OCC)c3ccccc13)C(=O)N(c1ccc(CC(=O)NS(=O)(=O)c3ccc4ccccc4c3)cc1)C2 [Example 37] |  | ≤ 100
